According to US11999746B2, “Compounds” (GlaxoSmithKline Intellectual Property Development Limited, priority 2014, dated 2024):
Where a name gives a salt, the structure may show the parent alone.

Key:
[1] = target: T1, recombinant human Lp-PLA2 (Homo sapiens, UniProt Q13093); assay: (1b) hrThioPAF assay, recombinant human Lp-PLA2; type: biochemical; conditions: Examples 266-412 were tested here, one experiment or average of multiple experiments, read-out: rhLp-PLA2 (pIC50) (converted)
T1 sequence (Q13093 22-441): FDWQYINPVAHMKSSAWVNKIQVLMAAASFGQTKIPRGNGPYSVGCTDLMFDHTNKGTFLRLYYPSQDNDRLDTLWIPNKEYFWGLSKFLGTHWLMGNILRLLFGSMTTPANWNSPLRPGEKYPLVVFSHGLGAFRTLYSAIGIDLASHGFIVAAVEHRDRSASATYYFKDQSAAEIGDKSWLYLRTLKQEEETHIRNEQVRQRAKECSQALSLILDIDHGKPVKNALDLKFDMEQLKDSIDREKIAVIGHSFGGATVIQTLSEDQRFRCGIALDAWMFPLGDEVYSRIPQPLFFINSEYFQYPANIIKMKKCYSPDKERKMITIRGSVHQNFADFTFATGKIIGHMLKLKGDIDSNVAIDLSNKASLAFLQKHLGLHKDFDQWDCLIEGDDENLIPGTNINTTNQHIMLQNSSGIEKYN
Outline: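 Fluorogenic assay: 20 pM rhLp-PLA2 in 50 mM HEPES pH 7.4, 150 mM NaCl, 1 mM CHAPS with 1:3 serially diluted compounds; substrate mix of 40 μM 2-thio-PAF, 40 μM CPM, 400 μM NEM (pre-addition levels). 20 min at 25 °C in the dark; fluorescence ex 380/em 485 nm, pIC50 by curve fitting.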

Lp-PLA2 in human plasma = target: T2, Lp-PLA2 in human plasma (Homo sapiens, UniProt Q13093); assay: (3b) Lp-PLA2 human plasma alternative Thio-PAF assay; type: biochemical; conditions: (3b) alternative Thio-PAF assay, pooled human plasma; Examples of 266-412 were tested here; read-out: pIC50 in the Lp-PLA2 human plasma assay (converted)
T2 construct: from tissue; host or cells: pooled human plasma
T2 sequence (Q13093 22-441): T1 sequence (Q13093 22-441)
Experimental: (3b) Alternative Thio-PAF Assay
The human plasma assay utilizes the same thioester analog of PAF as described in (1b) “hr ThioPAF” assay. This assay may detect the activity of Lp-PLA2 in human plasma, as determined by specific inhibition by Lp-PLA2 inhibitors.
The thio-PAF assay was run as a quenched 20 μL assay. Compounds source plate was prepared by making 1:3 (by volume) serial dilution of the compounds into pure DMSO on 96-well microplate. 5 μL of compounds on compound source plate were transferred to 96-well Corning 3686 (black) low-volume plates by STAR+(Hamilton) liquid dispenser. 10 μL pooled human plasma, which was previously aliquoted and frozen, was added. Plates were centrifuged for 30 sec at 1000 rpm. After 15 minutes preincubation at room temperature, 5 μL of substrate solution comprising 2 mM 2-thio-PAF [from ethanol stock], 52 μM CPM [from a DMSO stock] and 2.5 mM NEM (N-ethylmaleimide) [made fresh daily in DMSO] in assay buffer (50 mM HEPES, pH 7.4, 150 mM NaCl, 1 mM CHAPS) was added to 96-well Corning 3686 (black) low-volume plates. After 3 mins, reaction was quenched with 10 μL of 5% aqueous trifluoroacetic acid (TFA). Plates were centrifuged 30 sec at 1000 rpm, covered to protect from light and incubated for 10 min at room temperature. Plates were read at ex: 380 nm/em: 485 nm using Envision plate reader (Perkin Elmer). Raw data were transferred to Excel software and pIC50 data, curve and QC analysis was conducted by using XL fit module in Excel.

Compound	IC50 [1]	IC50 (Lp-PLA2 in human plasma)
O=c1nc(OCc2ccc(F)c(F)c2)cc2n1CC1CNCCN21 (stereo not drawn) [Example E274, 7-((3,4-Difluorobenzyl)oxy)-3,4,11,11a-tetrahydro-1H-pyrazino[1′,2′:3,4] imidazo [1,2-c]pyrimidin-9(2H)-one]	≤ 0.1 µM	≤ 100 nM
Cc1ccc(Oc2c(F)cc(COc3cc4n(c(=O)n3)CC3CNCCN43)cc2F)cn1 (stereo not drawn) [Example E279, 7-((3,5-Difluoro-4-((6-methylpyridin-3-yl)oxy)benzyl)oxy)-3,4,11,11a-tetrahydro-1H-pyrazino[1′,2′:3,4] imidazo [1,2-c]pyrimidin-9(2H)-one]	≤ 10 µM	≤ 100 nM
CCN1CCN2c3cc(OCc4ccc(F)c(C#N)c4)nc(=O)n3CC2C1 (stereo not drawn) [Example E280, 5-(((2-Ethyl-9-oxo-2,3,4,9,11,11a-hexahydro-1H-pyrazino[1′,2′:3,4]imidazo[1,2-c]pyrimidin-7-yl)oxy)methyl)-2-fluorobenzonitrile]	≤ 10 µM	≤ 100 nM
CC(=O)N1CCN2c3cc(OCc4ccc(F)c(C#N)c4)nc(=O)n3CC2C1 (stereo not drawn) [Example E281, 5-(((2-Acetyl-9-oxo-2,3,4,9,11,11a-hexahydro-1H-pyrazino[1′,2′:3,4]imidazo[1,2-c]pyrimidin-7-yl)oxy)methyl)-2-fluorobenzonitrile, trifluoroacetic Acid Salt]	≤ 10 µM	≤ 100 nM
CCS(=O)(=O)N1CCN2c3cc(OCc4ccc(F)c(C#N)c4)nc(=O)n3CC2C1 (stereo not drawn) [Example E283, 5-(((2-(Ethylsulfonyl)-9-oxo-2,3,4,9,11,11a-hexahydro-1H-pyrazino[1,2′:3,4]imidazo[1,2-c]pyrimidin-7-yl)oxy)methyl)-2-fluorobenzonitrile]	≤ 10 µM	≤ 100 nM
CN(C)CC(=O)N1CCN2c3cc(OCc4ccc(F)c(C#N)c4)nc(=O)n3CC2C1 (stereo not drawn) [Example E284, 5-(((2-(2-(Dimethylamino)acetyl)-9-oxo-2,3,4,9,11,11a-hexahydro-1H-pyrazino[1,2′:3,4]imidazo[1,2-c]pyrimidin-7-yl)oxy)methyl)-2-fluorobenzonitrile]	≤ 10 µM	≤ 100 nM
[2H]C1([2H])C2CN(C(C)=O)CCN2c2cc(OCc3ccc(F)c(C#N)c3)nc(=O)n21 (stereo not drawn) [Example E285, 5-(((2-Acetyl-11,11-dideutero-9-oxo-2,3,4,9,11,11a-hexahydro-1H-pyrazino[1′,2′:3,4]imidazo[1,2-c]pyrimidin-7-yl)oxy)methyl)-2-fluorobenzonitrile]	≤ 10 µM	≤ 100 nM
CS(=O)(=O)N1CCN2c3cc(OCc4ccc(F)c(C#N)c4)nc(=O)n3CC2C1 (stereo not drawn) [Example E286, 2-Fluoro-5-(((2-(methylsulfonyl)-9-oxo-2,3,4,9,11,11a-hexahydro-1H-pyrazino[1′,2′:3,4]imidazo[1,2-c]pyrimidin-7-yl)oxy)methyl)benzonitrile hydrochloride]	≤ 10 µM	≤ 100 nM
[2H]C1([2H])C2CN(S(C)(=O)=O)CCN2c2cc(OCc3ccc(F)c(C#N)c3)nc(=O)n21 (stereo not drawn) [Example E287, 5-(((11,11-Dideutero-2-(methylsulfonyl)-9-oxo-2,3,4,9,11,11a-hexahydro-1H-pyrazino[1′,2′:3,4]imidazo[1,2-c]pyrimidin-7-yl)oxy)methyl)-2-fluorobenzonitrile]	≤ 10 µM	≤ 100 nM
N#Cc1cc(COc2cc3n(c(=O)n2)CC2CN(C(=O)CCN)CCN32)ccc1F (stereo not drawn) [Example E288, 5-(((2-(3-Aminopropanoyl)-9-oxo-2,3,4,9,11,11a-hexahydro-1H-pyrazino[1′,2′:3,4]imidazo[1,2-c]pyrimidin-7-yl)oxy)methyl)-2-fluorobenzonitrile]	≤ 10 µM	≤ 100 nM
CCC(=O)N1CCN2c3cc(OCc4ccc(F)c(C#N)c4)nc(=O)n3CC2C1 (stereo not drawn) [Example E289, 2-Fluoro-5-(((9-oxo-2-propionyl-2,3,4,9,11,11a-hexahydro-1H-pyrazino[1′,2′:3,4]imidazo[1,2-c]pyrimidin-7-yl)oxy)methyl)benzonitrile 2,2,2-trifluoroacetate]	≤ 10 µM	≤ 100 nM
CC(C)C(=O)N1CCN2c3cc(OCc4ccc(F)c(C#N)c4)nc(=O)n3CC2C1 (stereo not drawn) [Example E290, 2-Fluoro-5-(((2-isobutyryl-9-oxo-2,3,4,9,11,11a-hexahydro-1H-pyrazino[1′,2′:3,4]imidazo[1,2-c]pyrimidin-7-yl)oxy)methyl)benzonitrile 2,2,2-trifluoroacetate]	≤ 10 µM	≤ 100 nM
CCCC(=O)N1CCN2c3cc(OCc4ccc(F)c(C#N)c4)nc(=O)n3CC2C1 (stereo not drawn) [Example E291, 5-(((2-Butyryl-9-oxo-2,3,4,9,11,11a-hexahydro-1H-pyrazino[1′,2′:3,4]imidazo[1,2-c]pyrimidin-7-yl)oxy)methyl)-2-fluorobenzonitrile 2,2,2-trifluoroacetate]	≤ 10 µM	≤ 100 nM
N#Cc1cc(COc2cc3n(c(=O)n2)CC2CN(C(=O)C4CC4)CCN32)ccc1F (stereo not drawn) [Example E292, 5-(((2-(cyclopropanecarbonyl)-9-oxo-2,3,4,9,11,11a-hexahydro-1H-pyrazino[1′,2′:3,4]imidazo[1,2-c]pyrimidin-7-yl)oxy)methyl)-2-fluorobenzonitrile 2,2,2-trifluoroacetate]	≤ 10 µM	≤ 100 nM
CC(C)CC(=O)N1CCN2c3cc(OCc4ccc(F)c(C#N)c4)nc(=O)n3CC2C1 (stereo not drawn) [Example E293, 2-Fluoro-5-(((2-(3-methylbutanoyl)-9-oxo-2,3,4,9,11,11a-hexahydro-1H pyrazino[1′,2′:3,4]imidazo[1,2-c]pyrimidin-7-yl)oxy)methyl)benzonitrile]	≤ 10 µM	≤ 100 nM
CC(C)(C)C(=O)N1CCN2c3cc(OCc4ccc(F)c(C#N)c4)nc(=O)n3CC2C1 (stereo not drawn) [Example E294, 2-Fluoro-5-(((9-oxo-2-pivaloyl-2,3,4,9,11,11a-hexahydro-1H-pyrazino[1′,2′:3,4]imidazo[1,2-c]pyrimidin-7-yl)oxy)methyl)benzonitrile 2,2,2-trifluoroacetate]	≤ 10 µM	≤ 100 nM
CC(C)S(=O)(=O)N1CCN2c3cc(OCc4ccc(F)c(C#N)c4)nc(=O)n3CC2C1 (stereo not drawn) [Example E295, 2-Fluoro-5-(((2-(isopropylsulfonyl)-9-oxo-2,3,4,9,11,11a-hexahydro-1H-pyrazino[1′,2′:3,4]imidazo[1,2-c]pyrimidin-7-yl)oxy)methyl)benzonitrile 2,2,2-trifluoroacetate]	≤ 10 µM	≤ 100 nM
N#Cc1cc(COc2cc3n(c(=O)n2)CC2CN(S(=O)(=O)C4CC4)CCN32)ccc1F (stereo not drawn) [Example E296, 5-(((2-(Cyclopropylsulfonyl)-9-oxo-2,3,4,9,11,11a-hexahydro-1H-pyrazino[1′,2′:3,4]imidazo[1,2-c]pyrimidin-7-yl)oxy)methyl)-2-fluorobenzonitrile 2,2,2-trifluoroacetate]	≤ 10 µM	≤ 100 nM
N#Cc1cc(COc2cc3n(c(=O)n2)CC2CN(C(=O)C4(N)CC4)CCN32)ccc1F (stereo not drawn) [Example E297, 5-(((2-(1-Aminocyclopropanecarbonyl)-9-oxo-2,3,4,9,11,11a-hexahydro-1H-pyrazino[1′,2′:3,4]imidazo[1,2-c]pyrimidin-7-yl)oxy)methyl)-2-fluorobenzonitrile 2,2,2-trifluoroacetate]	≤ 10 µM	≤ 100 nM
CC(C)(N)CC(=O)N1CCN2c3cc(OCc4ccc(F)c(C#N)c4)nc(=O)n3CC2C1 (stereo not drawn) [Example E298, 5-(((2-(3-Amino-3-methylbutanoyl)-9-oxo-2,3,4,9,11,11a-hexahydro-1H-pyrazino[1′,2′:3,4]imidazo[1,2-c]pyrimidin-7-yl)oxy)methyl)-2-fluorobenzonitrile 2,2,2-trifluoroacetate]	≤ 10 µM	≤ 100 nM
CC(=O)N1CCN2c3cc(OCc4cc(F)c(Oc5ccc(C)nc5)c(F)c4)nc(=O)n3CC2C1 (stereo not drawn) [Example E299, 2-Acetyl-7-((3,5-difluoro-4-((6-methylpyridin-3-yl)oxy)benzyl)oxy)-3,4,11,11a-tetrahydro-1H-pyrazino[1′,2′:3,4]imidazo[1,2-c]pyrimidin-9(2H)-one]	≤ 10 µM	≤ 100 nM
